Activity calls are given as the source filed them. No cut-off for these calls is given here.

Data on 6 compounds can be found in ChEMBL document CHEMBL4806967, “Heterocyclic kinase inhibitors and uses thereof” (2020).

Data set [1] is described as follows: Free drug concentration in mouse at 30 mg/kg, po measured after 2 hrs. In kind it is ADME, organism-based. Particulars: in vivo.
A short description of data set [2]: Free drug concentration in mouse at 30 mg/kg, po measured after 6 hrs. In kind it is ADME, organism-based. Particulars: in vivo.
The nature of data set [3]: AUCextrap in CD-1 mouse at 1 mg/kg, iv. In kind it is ADME, organism-based. Particulars: in vivo.
The nature of data set [4]: AUCextrap in CD-1 mouse at 30 mg/kg, po. In kind it is ADME, organism-based. The following applies: in vivo.
The nature of data set [5]: Free drug concentration in mouse at 30 mg/kg, po measured after 7 hrs. Particulars: in vivo. In kind it is ADME, organism-based.
Data set [6] is described as follows: Free drug concentration in mouse at 30 mg/kg, po measured after 24 hrs. In kind it is ADME, organism-based. Particulars: in vivo.
Data set [7] is described as follows: Toxicity in C57BL/6 mouse assessed as signs of intolerance by measuring change in posture upto 100 mg/kg, gavage twice daily measured after 7 days. Particulars: in vivo, po, 168 h, time 7 day. In kind it is organism-based.
A short description of data set [8]: Toxicity in C57BL/6 mouse assessed as signs of intolerance by measuring change in vocalization upto 100 mg/kg, gavage twice daily measured after 7 days. Particulars: in vivo, po, 168 h, time 7 day. In kind it is organism-based.
Data set [9] in a line: Toxicity in C57BL/6 mouse assessed as signs of intolerance by measuring ease of handling upto 100 mg/kg, gavage twice daily measured after 7 days. Particulars: in vivo, po, 168 h, time 7 day. In kind it is organism-based.
The nature of data set [10]: Toxicity in C57BL/6 mouse assessed as signs of intolerance by measuring change in lacrimation upto 100 mg/kg, gavage twice daily measured after 7 days. In kind it is organism-based. Particulars: in vivo, po, 168 h, time 7 day.
A short description of data set [11]: Toxicity in C57BL/6 mouse assessed as signs of intolerance by measuring chromo-dacryorrhea upto 100 mg/kg, gavage twice daily measured after 7 days. In kind it is organism-based. The following applies: in vivo, po, 168 h, time 7 day.
A short description of data set [12]: Toxicity in C57BL/6 mouse assessed as signs of intolerance by measuring change in salivation upto 100 mg/kg, gavage twice daily measured after 7 days. In kind it is organism-based. Particulars: in vivo, po, 168 h, time 7 day.
Data set [13] in a line: Toxicity in C57BL/6 mouse assessed as signs of intolerance by measuring change in intact fur/coat upto 100 mg/kg, gavage twice daily measured after 7 days. In kind it is organism-based. The following applies: in vivo, po, 168 h, time 7 day.
Data set [14] in a line: Toxicity in C57BL/6 mouse assessed as signs of intolerance by measuring change in arousal upto 100 mg/kg, gavage twice daily measured after 7 days. In kind it is organism-based. The following applies: in vivo, po, 168 h, time 7 day.
The nature of data set [15]: Toxicity in C57BL/6 mouse assessed as signs of intolerance by measuring change in piloerection upto 100 mg/kg, gavage twice daily measured after 7 days. In kind it is organism-based. The following applies: in vivo, po, 168 h, time 7 day.
Data set [16] in a line: Toxicity in C57BL/6 mouse assessed as signs of intolerance by measuring change in normal motor movements upto 100 mg/kg, gavage twice daily measured after 7 days. In kind it is organism-based. The following applies: in vivo, po, 168 h, time 7 day.
Data set [17] in a line: Toxicity in C57BL/6 mouse assessed as signs of intolerance by measuring tail pinch upto 100 mg/kg, gavage twice daily measured after 7 days. In kind it is organism-based. Particulars: in vivo, po, 168 h, time 7 day.
Data set [18] can be described thus: Toxicity in C57BL/6 mouse assessed as signs of intolerance by measuring diarrhoea upto 100 mg/kg, gavage twice daily measured after 7 days. In kind it is organism-based. The following applies: in vivo, po, 168 h, time 7 day.
Data set [19] in a line: Toxicity in C57BL/6 mouse assessed as maximum tolerated dose administered through gavage twice daily measured after 7 days. Particulars: in vivo, po, time 7 day.
The subject of data set [20] is MC-38. The experiment in a line: Anticancer activity against mouse MC38 cells subcutaneously implanted in C57BI/6N mouse assessed as tumour growth inhibition at 100 mg/kg, po once daily for 3 weeks. In kind it is functional. Particulars: read-out: TGI.
Data set [21] can be described thus: Toxicity in C57BI/6N mouse implanted subcutaneously with MC38 cells assessed as body weight loss at 30 to 100 mg/kg, po once daily for 3 weeks. In kind it is organism-based, MC-38. Particulars: in vivo, dose 30-100 mg/kg.
Data set [22] addresses hERG (KCNH2) (Homo sapiens, UniProt Q12809). The experiment in a line: Inhibition of human ERG expressed in HEK cells at 10 uM by automated electrophysiology assay. In kind it is cell-based. The following applies: HEK cells that express human ERG.
Data set [23] concerns K562. The experiment in a line: Anticancer activity against human K562 cells xenografted in SCID mouse assessed as increase in survival at 10 to 30 mg/kg, iv once daily for 5 days. In kind it is functional, organism-based. The following applies: dose 10-30 mg/kg, time 5.0 day. A general note: Xenograft models place foreign cells or tissue in a host animal.
Data set [24] is described as follows: Metabolic stability in mouse liver microsomes assessed as intrinsic clearance. In kind it is ADME, Microsome.

Chain of hERG (KCNH2) (Q12809 whole entry): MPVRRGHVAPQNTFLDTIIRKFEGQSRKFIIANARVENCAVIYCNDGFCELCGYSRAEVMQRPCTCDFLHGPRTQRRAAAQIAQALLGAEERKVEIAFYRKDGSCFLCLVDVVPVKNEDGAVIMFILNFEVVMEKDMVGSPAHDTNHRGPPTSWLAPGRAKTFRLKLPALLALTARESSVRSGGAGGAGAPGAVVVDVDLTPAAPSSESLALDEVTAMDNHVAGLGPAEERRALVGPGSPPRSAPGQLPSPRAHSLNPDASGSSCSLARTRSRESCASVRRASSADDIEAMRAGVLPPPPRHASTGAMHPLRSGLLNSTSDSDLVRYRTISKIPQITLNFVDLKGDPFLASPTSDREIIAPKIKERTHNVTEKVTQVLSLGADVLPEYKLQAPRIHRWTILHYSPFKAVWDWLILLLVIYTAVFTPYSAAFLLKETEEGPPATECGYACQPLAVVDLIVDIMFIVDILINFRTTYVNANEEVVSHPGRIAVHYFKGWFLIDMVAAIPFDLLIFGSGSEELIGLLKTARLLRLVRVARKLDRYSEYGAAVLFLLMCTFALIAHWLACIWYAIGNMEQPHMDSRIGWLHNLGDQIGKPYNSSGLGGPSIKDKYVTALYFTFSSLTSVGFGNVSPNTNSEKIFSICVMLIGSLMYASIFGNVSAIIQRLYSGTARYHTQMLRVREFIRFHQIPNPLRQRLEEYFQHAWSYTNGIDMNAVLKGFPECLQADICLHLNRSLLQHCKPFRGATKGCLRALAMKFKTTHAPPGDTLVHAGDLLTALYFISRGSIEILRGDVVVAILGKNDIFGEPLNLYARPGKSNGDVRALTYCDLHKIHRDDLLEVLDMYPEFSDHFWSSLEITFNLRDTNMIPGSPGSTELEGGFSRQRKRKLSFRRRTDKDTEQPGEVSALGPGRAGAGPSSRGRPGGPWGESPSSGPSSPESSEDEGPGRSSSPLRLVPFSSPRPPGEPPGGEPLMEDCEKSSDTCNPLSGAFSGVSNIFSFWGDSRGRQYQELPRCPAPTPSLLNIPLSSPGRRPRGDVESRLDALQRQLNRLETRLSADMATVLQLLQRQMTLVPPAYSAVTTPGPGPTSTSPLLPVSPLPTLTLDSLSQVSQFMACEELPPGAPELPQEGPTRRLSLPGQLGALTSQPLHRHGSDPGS

For the compound `Cc1nc(Nc2ncc(C(=O)Nc3c(Cl)csc3C)s2)cc(N2CCN(CCO)CC2)n1`, the “Drug uptake(free)” value in data set [1] is 80 nM; in data set [2], 4 nM.
What is called MTD is the highest dose tested that stayed within the study's limit of toxicity. In the case of `Cc1nc(Nc2ncc(C(=O)Nc3c(C)csc3Cl)s2)cc(N2CCN(CCO)CC2)n1`, the “%AUCextra” value in [3] and in data set [4] was 5.81% each time. Besides, the results for the “Drug uptake(free)” value in data set [1], in [5] and in data set [6] were 32 nM, 3 nM and 0.1 nM, respectively. In addition, the Activity result in [7], in data set [8], in data set [9], in data set [10], in data set [11] and in [12] was “Non-Toxic” in each case. The Activity entry in data set [13], in data set [14], in [15], in [16], in data set [17] and in [18] was “Non-Toxic” each time. Also, the Activity result in data set [21] is “Non-Toxic”. Further, the MTD at 168 h in data set [19] was no more than 100 mg/kg. Besides, the inhibition in vivo at 100 mg/kg in data set [20] worked out at 38%.
In general, inhibition refers to the share of the control response that was lost under treatment. The low end stands for little suppression, the high end for strong suppression. On to `Cc1nc(Nc2ncc(C(=O)Nc3c(C)cccc3Cl)s2)cc(N2CCN(CCO)CC2)n1.O` [DASATINIB], for which the inhibition at 10 µM in data set [22] came to 36%. Besides, the “Drug uptake(free)” value in data set [1] stood at 30 nM. For the same compound, the outcome in data set [23] was Active. For the same compound, the Activity result in [21] is recorded as “Non-Toxic”.
`Cc1nc(Nc2ncc(C(=O)Nc3ncccc3C)s2)cc(N2CCN(CCO)CC2)n1`: in data set [24], the CLint is 38 µL/min/mg.
For `Cc1nc(Nc2ncc(C(=O)Nc3c(Cl)csc3Cl)s2)cc(N2CCN(CCO)CC2)n1`, the “Drug uptake(free)” value came to 43 nM in [1] and 5 nM in [2].
The like results for `Cc1nc(Nc2ncc(C(=O)Nc3c(C)csc3Cl)s2)cc(N2CCN(C)CC2)n1` were, in that order, 44 nM and 8 nM.
